Data: US20100317698A1, “Polysubstituted Pyridinylaminoalkylene- and Pyridinyloxyalkylene-Cyclopropanamine Compounds, a Process for Their Preparation and Pharmaceutical Compositions Containing Them” (LES LABORATOIRES SERVIER, priority 2006, published 2010)
Where a name gives a salt, the structure may show the parent alone.

Test system: not given
Test: not given
Details: not given

First: CNC1(CNc2cnc(C)c(-c3ccc(C(=O)O)cc3)c2)CC1.Cl.Cl
Second: CNC1(CNc2cnc(Cl)c(-c3ccc(C(=O)O)cc3)c2)CC1.Cl.Cl
The melting point of the first is higher: 241 to 245 °C for the first, 175 to 182 °C for the second.

Compared with `CCc1ccc(-c2cncc(OCC3(CN)CC3)c2)cc1.Cl.Cl`, `Cl.Cl.NCC1(COc2cncc(-c3ccc(Cl)cc3)c2)CC1` is higher in melting point: 197 to 200 °C for the first, 208 to 213 °C for the second.

Compared with `CNC1(CNc2cncc(-c3cccc(C(=O)O)c3)c2)CC1.Cl.Cl`, `CNC1(CNc2cnc(Cl)c(-c3cccc(C(=O)O)c3)c2)CC1.Cl.Cl` is lower in melting point: 248 to 250 °C for the first, 140 to 145 °C for the second.

`COc1ccc(-c2cc(OCC3(N)CC3)cnc2Cl)cc1.Cl.Cl` and `COc1ccc(-c2cc(OCC3(N(C)C)CC3)cnc2Cl)cc1.Cl` cannot be ordered by melting point: 207 to 211 °C for the first, 208 to 210 °C for the second.

First: COc1cc(-c2cc(OCC3(CN)CC3)cnc2Cl)cc(OC)c1OC.Cl
Second: CNC1(COc2cncc(-c3cc(OC)c(OC)c(OC)c3)c2)CC1.Cl
The melting point of the first is higher: 138 to 140 °C for the first, 116 to 120 °C for the second.

First: Cl.Cl.NCC1(COc2cnc(-c3ccc([N+](=O)[O-])cc3)c(-c3ccc([N+](=O)[O-])cc3)c2)CC1
Second: Cl.Cl.NCC1(COc2cnc(-c3ccc(Cl)cc3)c(-c3ccc(Cl)cc3)c2)CC1
The melting point of the first is lower: 215 to 220 °C for the first, 220 to 225 °C for the second.

First: Cl.Cl.NCC1(COc2cnc(F)c(-c3cccc(N)c3)c2)CC1
Second: Cc1ncc(OCC2(CN)CC2)cc1-c1cccc(N)c1.Cl.Cl.Cl
The melting point of the first is lower: 158 to 161 °C for the first, 222 to 228 °C for the second.

First: CNC1(COc2cncc(-c3ccccc3C)c2)CC1.Cl.Cl
Second: CNC1(COc2cncc(-c3ccc(C)cc3)c2)CC1.Cl.Cl [Example 2, Methyl[1-({[5-(4-methylphenyl)pyridin-3-yl]oxy}methyl)cyclopropyl]amine dihydrochloride]
The melting point of the first is lower: 192 to 196 °C for the first, 218 to 223 °C for the second.

First: CCOC(=O)c1ccc(-c2cc(OCC3(NC)CC3)cnc2Cl)cc1.Cl.Cl
Second: CNC1(COc2cnc(Cl)c(-c3ccc(C(N)=O)cc3)c2)CC1.Cl
The melting point of the first is higher: 146 to 148 °C for the first, 130 °C for the second.

`Cl.NCC1(COc2cnc(Cl)c(-c3c(Cl)cccc3Cl)c2)CC1` and `Cl.NCC1(COc2cnc(Cl)c(-c3cccc(Cl)c3)c2)CC1` cannot be ordered by melting point: 182 to 186 °C for the first, 182 to 184 °C for the second.

First: Cc1cccc(-c2cncc(OCC3(CN)CC3)c2)c1.Cl.Cl
Second: Cl.Cl.NCC1(COc2cncc(-c3cccc(Cl)c3)c2)CC1
The melting point of the first is lower: 215 to 218 °C for the first, 230 to 235 °C for the second.

First: Cl.Cl.NCC1(COc2cnc(F)c(-c3ccc(N)cc3)c2)CC1
Second: Cc1ncc(OCC2(CN)CC2)cc1-c1ccc(N)cc1.Cl.Cl.Cl
The melting point of the first is lower: 225 to 230 °C for the first, 245 to 250 °C for the second.

Compared with `Cl.NCC1(COc2cnc(Cl)c(-c3cc(C(F)(F)F)cc(C(F)(F)F)c3)c2)CC1`, `CNC1(COc2cncc(-c3cc(C(F)(F)F)cc(C(F)(F)F)c3)c2)CC1.Cl` is lower in melting point: 182 to 188 °C for the first, 132 to 136 °C for the second.

First: CNC1(COc2cnc(Cl)c(-c3ccc(O)cc3)c2)CC1.Cl.Cl
Second: CNC1(COc2cnc(Cl)c(-c3ccc(CO)cc3)c2)CC1.Cl.Cl
The melting point of the first is higher: 216 to 220 °C for the first, 142 to 146 °C for the second.

`CNC1(CNc2cnc(Cl)c(-c3ccc(N)cc3)c2)CC1.Cl.Cl` and `CNC1(CNc2cnc(C)c(-c3ccc(N)cc3)c2)CC1.Cl.Cl.Cl` cannot be ordered by melting point: 190 to 196 °C for the first, 190 to 200 °C for the second.

First: CNC1(COc2cnc(C)c(-c3cccc(C#N)c3)c2)CC1.Cl.Cl
Second: CNC1(COc2cnc(F)c(-c3cccc(C#N)c3)c2)CC1.Cl
The melting point of the first is higher: 238 to 242 °C for the first, 211 to 215 °C for the second.

First: CNC1(COc2cnc(-c3ccc(C#N)cc3)c(-c3ccc(C#N)cc3)c2)CC1.Cl.Cl
Second: CNC1(COc2cnc(F)c(-c3ccc(C#N)cc3)c2)CC1.Cl
The melting point of the first is higher: 205 to 208 °C for the first, 90 to 105 °C for the second.

Compared with `Cl.NCC1(COc2cnc(Cl)c(-c3cccc([N+](=O)[O-])c3)c2)CC1`, `Cl.NCC1(COc2cnc(Cl)c(-c3ccc([N+](=O)[O-])cc3)c2)CC1` is lower in melting point: 229 to 232 °C for the first, 145 to 150 °C for the second.

Compared with `Cl.Cl.NCC1(COc2cnc(Cl)c(-c3ccc(N)cc3)c2)CC1`, `CCc1ccc(-c2cc(OCC3(CN)CC3)cnc2Cl)cc1.Cl.Cl` is lower in melting point: 240 to 243 °C for the first, 112 to 114 °C for the second.

First: CNC1(CN(C)c2cnc(Cl)c(-c3ccc(C(=O)O)cc3)c2)CC1.Cl.Cl
Second: CNC1(CN(C)c2cnc(Cl)c(-c3ccncc3)c2)CC1.Cl.Cl
The melting point of the first is higher: 138 to 145 °C for the first, 110 to 120 °C for the second.

First: Cl.NCC1(COc2cnc(F)c(-c3cccc(Cl)c3)c2)CC1
Second: Cc1ncc(OCC2(CN)CC2)cc1-c1cccc(Cl)c1.Cl.Cl
The melting point of the first is lower: 126 to 130 °C for the first, 223 to 227 °C for the second.

First: CNC1(CN(C)c2cnc(C)c(-c3ccc(N)cc3)c2)CC1.Cl.Cl.Cl
Second: CNC1(CN(C)c2cnc(C)c(-c3ccncc3)c2)CC1.Cl.Cl.Cl
The melting point of the first is higher: 235 to 240 °C for the first, 182 to 187 °C for the second.

Compared with `CNC1(COc2cnc(C)c(-c3ccc(C#N)cc3)c2)CC1.Cl.Cl`, `CNC1(COc2cnc(Cl)c(-c3ccc(SC)cc3)c2)CC1.Cl.Cl` is lower in melting point: 220 to 224 °C for the first, 144 to 148 °C for the second.

Compared with `CNC1(COc2cnc(Cl)c(-c3ccc(N=C=S)cc3)c2)CC1.Cl`, `CNC1(COc2cnc(Cl)c(-c3ccc(NC(=O)CCl)cc3)c2)CC1.Cl` is lower in melting point: 172 to 176 °C for the first, 140 to 144 °C for the second.

Compared with `Cl.Cl.NCC1(COc2cncc(-c3cc(Cl)ccc3Cl)c2)CC1`, `Cl.Cl.NCC1(COc2cncc(-c3cc(F)ccc3F)c2)CC1` is lower in melting point: 195 to 200 °C for the first, 188 to 192 °C for the second.

First: COc1ccc(-c2cncc(OCC3(CN)CC3)c2)cc1.Cl.Cl
Second: Cl.Cl.NCC1(COc2cncc(-c3cccc(F)c3)c2)CC1
The melting point of the first is higher: 215 to 220 °C for the first, 210 to 214 °C for the second.

Compared with `Cc1cccc(-c2cc(OCC3(CN)CC3)cnc2Cl)c1.Cl`, `Cl.Cl.NCC1(COc2cnc(Cl)c(-c3ccccc3)c2)CC1` is lower in melting point: 152 to 154 °C for the first, 130 to 135 °C for the second.

First: Cl.Cl.Cl.NCC1(COc2cncc(-c3cccc(N)c3)c2)CC1
Second: Cl.Cl.NCC1(COc2cncc(-c3cccc([N+](=O)[O-])c3)c2)CC1
The melting point of the first is lower: 185 to 190 °C for the first, 220 to 225 °C for the second.

First: CNC1(CNc2cnc(C)c(-c3ccncc3)c2)CC1.Cl.Cl.Cl
Second: CNC1(CNc2cnc(Cl)c(-c3cccnc3)c2)CC1.Cl.Cl.Cl
The melting point of the first is higher: 240 to 248 °C for the first, 180 to 185 °C for the second.

Compared with `Cl.Cl.NCC1(COc2cnc(Cl)c(-c3cccnc3)c2)CC1`, `Cl.Cl.NCC1(COc2cnc(Cl)c(-c3ccncc3)c2)CC1` is lower in melting point: 210 to 215 °C for the first, 125 to 130 °C for the second.

First: Cc1ncc(OCC2(CN)CC2)cc1-c1ccc(Cl)cc1.Cl.Cl
Second: Cl.NCC1(COc2cnc(F)c(-c3ccc(Cl)cc3)c2)CC1
The melting point of the first is higher: 194 to 199 °C for the first, 55 to 60 °C for the second.

First: CNC1(COc2cnc(Cl)c(-c3cc(Cl)cc(Cl)c3)c2)CC1.Cl
Second: CNC1(COc2cnc(Cl)c(-c3cc(Cl)ccc3Cl)c2)CC1.Cl
The melting point of the first is higher: 186 to 188 °C for the first, 140 to 142 °C for the second.

First: Cc1ccccc1-c1cc(OCC2(CN)CC2)cnc1Cl.Cl
Second: CNC1(COc2cnc(Cl)c(-c3cc(F)ccc3F)c2)CC1.Cl
The melting point of the first is lower: 130 to 132 °C for the first, 140 to 142 °C for the second.

First: CNC1(COc2cnc(F)c(-c3ccc(C(=O)O)cc3)c2)CC1.Cl.Cl
Second: CNC1(COc2cnc(Cl)c(-c3cccc(NC(C)=O)c3)c2)CC1.Cl
The melting point of the first is lower: 211 to 215 °C for the first, 220 to 222 °C for the second.

First: CNC1(COc2cncc(-c3cccc(C#N)c3)c2)CC1.Cl.Cl
Second: CNC1(COc2cnc(Cl)c(-c3cccc(C#N)c3)c2)CC1.Cl
The melting point of the first is lower: 110 to 120 °C for the first, 228 to 232 °C for the second.

Target: T1, type α4β2 central nicotinic receptors (Rattus norvegicus, UniProt P09483+P12390)
T1 construct: from tissue; host or cells: rat brain membranes
T1 sequence (P09483 31-630): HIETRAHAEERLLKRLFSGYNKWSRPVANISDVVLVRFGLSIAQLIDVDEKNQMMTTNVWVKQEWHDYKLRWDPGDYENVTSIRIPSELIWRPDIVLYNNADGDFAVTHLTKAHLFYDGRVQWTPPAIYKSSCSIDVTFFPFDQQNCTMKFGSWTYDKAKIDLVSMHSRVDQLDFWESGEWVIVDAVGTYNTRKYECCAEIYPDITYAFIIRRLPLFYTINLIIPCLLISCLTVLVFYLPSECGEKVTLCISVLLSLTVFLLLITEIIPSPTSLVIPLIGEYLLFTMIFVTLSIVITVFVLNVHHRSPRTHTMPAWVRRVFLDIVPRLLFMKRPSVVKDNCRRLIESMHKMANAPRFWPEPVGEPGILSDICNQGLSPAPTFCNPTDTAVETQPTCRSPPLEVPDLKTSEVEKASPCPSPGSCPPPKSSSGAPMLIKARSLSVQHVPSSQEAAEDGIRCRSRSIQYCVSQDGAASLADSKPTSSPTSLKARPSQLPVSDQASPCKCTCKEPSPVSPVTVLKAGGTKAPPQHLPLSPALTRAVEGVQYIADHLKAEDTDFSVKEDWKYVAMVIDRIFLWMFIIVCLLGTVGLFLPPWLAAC
T1 sequence (P12390 25-500): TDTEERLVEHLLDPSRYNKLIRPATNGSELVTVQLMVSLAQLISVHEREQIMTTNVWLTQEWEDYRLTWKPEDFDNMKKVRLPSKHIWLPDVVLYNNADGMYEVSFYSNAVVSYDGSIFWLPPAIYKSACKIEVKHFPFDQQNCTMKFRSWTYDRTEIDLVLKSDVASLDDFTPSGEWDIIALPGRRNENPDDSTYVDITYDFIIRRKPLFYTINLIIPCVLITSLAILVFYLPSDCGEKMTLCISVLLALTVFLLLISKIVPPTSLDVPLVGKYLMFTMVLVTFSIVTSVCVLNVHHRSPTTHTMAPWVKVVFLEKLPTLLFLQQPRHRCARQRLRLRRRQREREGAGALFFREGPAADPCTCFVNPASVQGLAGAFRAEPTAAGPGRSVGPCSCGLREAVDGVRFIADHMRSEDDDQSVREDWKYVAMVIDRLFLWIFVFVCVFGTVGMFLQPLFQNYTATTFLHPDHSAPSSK
Test: Displacement of binding of [3H]-cytisine to type α4β2 nicotinic receptors of rat brain
Details: rat brain membranes, read-out: Affinity (Ki, nM) for type α4β2 receptors
Method: This study, carried out according to the technique described in Molec. Pharmacol., 1990, 39; 9-12, is aimed at determining the affinity of compounds of the present invention for type […] central nicotinic receptors.
Membranes (250 μg/ml) of rat brain are incubated (2 hours, 20° C.) in the presence of a series of concentrations (0.01-10 μM) of each compound of the present invention (diluted starting from a 10 mM stock solution in DMSO) and [^3H]-cytisine (S.A.: 1184 GBq/mmol: 2 nM) in phosphate buffer (NaH2PO4 20 mM, pH 7.4); final volume: 250 μl. The non-specific binding is determined by incubating membranes in the presence of 10 μM of (−)nicotine. The affinity of the compounds of the present invention for type α4β2 central nicotinic receptors is characterised by determination of the Ki.

Going from “[1-({[6-Chloro-5-(4-methylphenyl)pyridin-3-yl]oxy}methyl)cyclopropyl]methylamine dihydrochloride [Example 10]” to “[1-({[6-Chloro-5-(3-fluorophenyl)pyridin-3-yl]oxy}methyl)cyclopropyl]methylamine hydrochloride [Example 32]”, the Ki falls from 0.7 nM to 0.4 nM (1.7-fold).

Compared with “[1-({[5-(3,5-Dichlorophenyl)pyridin-3-yl]oxy}methyl)cyclopropyl]methylamine dihydrochloride [Example 52]”, `NCC1(COc2cnc(Cl)c(-c3ccc(F)cc3)c2)CC1` [Example 26, [1-({[6-Chloro-5-(4-fluorophenyl)pyridin-3-yl]oxy}methyl)cyclopropyl]methylamine hydrochloride] is 4.7-fold lower in Ki: 1.4 nM for the first, 0.3 nM for the second. The second binds more tightly here.

First: [1-({[5-(4-Nitrophenyl)pyridin-3-yl]oxy}methyl)cyclopropyl]methylamine dihydrochloride [Example 6]
Second: CNC1(COc2cncc(-c3ccc(C)cc3)c2)CC1.Cl.Cl [Example 2, Methyl[1-({[5-(4-methylphenyl)pyridin-3-yl]oxy}methyl)cyclopropyl]amine dihydrochloride]
The Ki of the first is 3.7-fold lower: 2.3 nM for the first, 8.5 nM for the second. The first binds more tightly here.

Work on “[1-({[5-(4-Methoxyphenyl)pyridin-3-yl]oxy}methyl)cyclopropyl]methylamine dihydrochloride [Example 11]” yielded a Ki of 0.8 nM.
